The text below walks through data of patent US20260284051A1, “METHIONINE ADENOSYLTRANSFERASE 2A (MAT2A) INHIBITOR COMBINATIONS AND USES THEREOF” (INSILICO MEDICINE IP LIMITED, priority 2023, published 2026).

In one assay the test system is KP4 MTAP null xenografts. The experiment in a line: Efficacy study of KP-4 human pancreatic cancer xenograft model in NOD SCID mice. Type of assay: in vivo. Particulars: for Tumor volume (mm^3) Final (mean): Mean ± SD. As for the experimental part: Efficacy Study of KP-4 Human Pancreatic Cancer Xenograft Model in NOD SCID Mice
The KP-4 tumor cell line was maintained in vitro as monolayer culture in RPMI 1640 medium supplemented with 10% fetal bovine serum at 37° C. in an atmosphere of […] in air. The tumor cells were routinely subculture weekly by trypsin-EDTA treatment, not to exceed 4-5 passages. The cells growing in an exponential growth phase was harvested and counted for tumor inoculation.
Each mouse was inoculated subcutaneously on the central right flank with KP-4 tumor cells (1×10^7) in 0.1 mL of RPMI-1640 without serum for the tumor development. The treatment started when the mean tumor size reached approximately 100 mm^3. Mice were assigned to groups such that the mean tumor volume is the same for each treatment group and time point.
For routine monitoring, all study animals were monitored for not only tumor growth but also behavior such as mobility, food, and water consumption (by cage side checking only), body weight (BW), eye/hair matting and any other abnormal effect. Any mortality and/or abnormal clinical signs were recorded.
Body weights of all animals were measured twice a week throughout the study. Body weight change, expressed in %, will be calculated using the following formula: BW change (%)=(BWDay x/BWDay 0)×100, where BWDay x is BW on a given day, and BWDay 0 is BW on Day 0 (initiation of treatment).
The measurement of tumor size were conducted twice a week with a caliper and the tumor volume (mm^3) was estimated using the formula: TV=a×b^2/2, where a and b are long and short diameters of a tumor, respectively. The TVs were used for calculation of the tumor growth inhibition (TGI, an indicator of antitumor effectiveness) value using the formula: TGI (%)=[1−(Tn−T0)/(Cn−C0)]×100%, only over the dosing period (dosing days 0 to days n). Where: Tn—is the avg tumor volume at the respective day “n” after dosing throughout treatment period; T0—is the avg tumor volume in the treatment group at day 0 before treatment (immediately before); Cn—avg tumor volume in the control group at the respective day “n” after dosing throughout treatment period; and C0—average tumor volume in the control group at day 0 before treatment (immediately before). The experiment was terminated when the mean tumor volume exceeded 2000 mm^3 or severe body weight loss.
The statistical software GraphPad Prism (version number: 8) was used to analyze the difference in tumor volume between the treatment group and the solvent control group. Two-way ANOVA and Bonferroni multiple tests were used to compare whether there was a significant difference in tumor volume between the vehicle control group and each treatment group during the administration period.
Mean tumor volume at dosing start was approximately 102 mm^3, with ten mice randomized to each treatment group. In the KP4 MTAP null tumor model, mice were dosed orally, once per day (QD) with Vehicle, once per day (QD) with Compound 1 at 1, 3 mg/kg, once per day (QD) with AG270 at 100 mg/kg, mice were intravenous, per week with Docetaxel at 2.5 mg/kg, or Compound 1 combined with Docetaxel at each dose level.
Background: In xenograft studies the graft and the host belong to different species.

Assay [1] deals with HCC15 MTAP null xenografts. The experiment in a line: Efficacy study of HCC15 human lung cancer xenograft model in NOD SCID mice. It counts as in vivo. Particulars: for Tumor volume (mm^3) Final (mean): Mean ± SD. As for the experimental part: Efficacy Study of HCC15 Human Lung Cancer Xenograft Model in NOD SCID Mice Methods:
The HCC15 cells were maintained in vitro as a monolayer culture in 90% 1640+10% FBS, 100U/ml penicillin and 100 μg/ml streptomycin at 37° C. in an atmosphere of 5% CO2 in air. The tumor cells were routinely subcultured at a ratio of 1:2 to 1:3 every 3-4 days. Alternatively, Cultures were maintained by addition or replacement of fresh medium. Started cultures at 5×10^5 cells/mL and maintained between 0.5×10^5 and 2×10^6 cells/ml.
NOD SCID mice, female, 6-8 weeks, weighing approximately 20-22 g.
Each mouse were inoculated subcutaneously at the right flank with HCC15 cells in a 0.2 mL mixture of 1640 for tumor development (5×10^6 cells/mouse). Dosing was started when the average tumor size reaches approximately 100-200 mm^3 for the tumor efficacy study with tool and med chem molecules to look for efficacy vs vehicle tumor growth.
Mean tumor volume at dosing start was approximately 133.09 mm^3, with ten mice randomized to each treatment group. In the HCC15 MTAP null tumor model, mice were dosed orally, once per day (QD) with Vehicle, once per day (QD) with Compound 1 at 3 mg/kg, once per day (QD) with AG270 at 100 mg/kg, mice were intravenous, per week with Docetaxel at 2.5 mg/kg, or Compound 1 combined with Docetaxel at each dose level.

[2] abbreviates: Docetaxel 2.5 mg/kg intravenous per week.

Consider `CC(=O)O[C@@]12CO[C@@H]1C[C@H](O)[C@@]1(C)C(=O)[C@H](O)C3=C(C)[C@@H](OC(=O)[C@H](O)[C@@H](NC(=O)OC(C)(C)C)c4ccccc4)C[C@@](O)([C@@H](OC(=O)c4ccccc4)[C@H]21)C3(C)C` [Docetaxel, docetaxel, reference compound], for which, in the assay with KP4 MTAP null xenografts (setting [2]), the “TGI (%)” value turned out to be 51.6% and the “Tumor volume (mm^3) Final (mean)” value is 1,159 ± 129 mm^3. In assay [1] (setting [2]), the “TGI (%)” value is recorded as 58.5% and the “Tumor volume (mm^3) Final (mean)” value was found to be 515 ± 36 mm^3.
On to AG270 [reference compound], for which the “TGI (%)” value in the assay with KP4 MTAP null xenografts (AG270 100 mg/kg orally QD) was found to be 55.7%; in assay [1] (AG270 100 mg/kg orally QD, 100 mg/kg) it was 55.3%. For the same compound, the “Tumor volume (mm^3) Final (mean)” value in the assay on KP4 MTAP null xenografts (AG270 100 mg/kg orally QD) was 1,070 ± 132 mm^3; in assay [1] (AG270 100 mg/kg orally QD), 544 ± 30 mm^3.
